The source of these data is patent publication EP3236920B1, “ANTIMICROBIAL PREPARATION COMPRISING BISPYRIDINIUM ALKANES, 1- OR 2-(C1 TO C24 ALKYL) GLYCEROL ETHER AND ALKANE-1,2-DIOLS” (Beiersdorf AG, priority 2014, dated 2016).

The test system of test [1] is Propionibakterium acnes. Kind of test: Suspension test, antimicrobial efficacy (reduction factor of cell count vs control). In kind it is cell-based, P. acnes (DSM 1897). Particulars: after 24h at 37°C, anaerobic medium; cfu(Kontrolle)/cfu(Testsubstanz); A: 0,2 µg/ml TPI 2007; B: 250 µg/ml Decan-1,2-diol; C: 250 µg/ml Decan-1,2-diol + 0,2 µg/ml TPI 2007. As to the method: Die antimikrobielle Wirksamkeit der erfindungsgemäßen dermatologischen und/oder kosmetischen Zubereitung gegen Propionibakterium acnes (P. acnes) wurde zum Vergleich mit verschiedenen Formulierungen untersucht.
Dazu wurde das Bakterium P. acnes (DSM 1897) aus einem nach EN 12353 angelegten Cryoröhrchen auf einer entsprechenden Agarplatte (Cost-Agar) ausgestrichen und bei 37°C 5 Tage unter anaeroben Bedingungen bebrütet.
Eine Impföse der Bakterien wurde zu 10mL anaerobem Medium gegeben und im Impedanzgerät mit dem Programm PR37NT unter anaeroben Bedingungen inkubiert. Anschließend wurde diese Bakteriensuspension auf eine OD (optische Dichte) von 0,3-0,5 eingestellt. Die eingestellte Bakteriensuspension wurde dann 1:10 mit anaerobem Medium verdünnt, um eine Keimzahl von ungefähr 5*10^6 zu gewährleisten. Diese Bakteriensuspension wurde anschließend für den Test eingesetzt.
Der Suspensionstest wurde per Hand durchgeführt. Hierzu wurden 500µL der zu testenden Wirkstofflösungen bzw. im Falle der Kontrollen 500 µl anaerobem Medium in Mikroreaktionsgefäßen vorgelegt. Anschließend wurden 500 µl der Bakteriensuspension hinzugegeben und gemischt. Zum Zeitpunkt t0 wurde eine Probe aus den Kontrollen entnommen. Die Mikroreaktionsgefäße wurden nun im Thermoschüttler bei 37 °C inkubiert. […]

Test [2] concerns Propionibakterium acnes. The note with it: 0,2% Decan-1,2-diol alone; cited from earlier work.

Turning to `CCCCCCCCC(O)CO` (centres unmarked) [Probe B, Decan-1,2-diol], the Reduktionsfaktor in the test on Propionibakterium acnes [1] stood at 1. In the test with Propionibakterium acnes [2], the “antibakterielle Wirkung im Suspensionstest” value is given as “so gut wie keine antibakterielle Wirkung”.
